Results as given in ChEMBL document CHEMBL1201862, “PubChem BioAssay data set” (2004).
Active and inactive are the calls of the source.

Assays:
Vero [1] = experiment: mammalian cell viability reduction – secondary assay, cytotoxicity control for West Nile virus antiviral project, dose response (AID 1650); format: functional; conditions: Chlorocebus sabaeus
Vero [2] = experiment: inhibition of WNV-induced cytopathic effect – cell-based, CPE readout (AID 1621); format: functional; conditions: Chlorocebus sabaeus
HEK293 [3] = experiment: cells; format: functional, cell-based; conditions: Homo sapiens
HEK293 [4] = experiment: cells; format: functional, cell-based; conditions: Homo sapiens; remark: listed apart in the source
[5] = DRD fibroblast viability loss – cell-based, non-viral oncogenic, luminescence, dose response (AID 1934); format: functional; conditions: Homo sapiens
[6] = non-specific 3'UTR reporter inhibition in Clone20-Shn3RL – cell-based, Renilla luciferase, cherry-picked, counter-screen for Shn3 inhibitor project, dose response (AID 624133); format: functional
cells [7] = format: functional, cell-based
HEK293 [8] = experiment: cells; format: functional, cell-based; conditions: Homo sapiens; remark: listed apart in the source
[9] = loss of viability in HepG2 cells – cell-based, CellTiter-Glo, cherry-picked, cytotoxicity control for Shn3 inhibitor project, dose response (AID 624134); format: functional
[10] = NIH3T3 cell viability loss – ATP luminescence, mouse fibroblasts, counter-screen, dose response (AID 2010); format: functional, cell-based;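 note: cells exposed to compound for about 90 hours before reading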
HEK293 [11] = experiment: inhibition of NOD1-driven NF-kB reporter – cell-based, luminescence, uHTS, primary screen (AID 1578); format: functional; conditions: Homo sapiens
[12] = molecular target: Nucleotide-binding oligomerization domain-containing protein 2 (Homo sapiens, UniProt Q9HC29); experiment: inhibition of NOD2-driven NF-kB reporter – cell-based, luminescence, uHTS, HEK293 (AID 1566); format: functional
Nucleotide-binding oligomerization domain-containing protein 2, sequence (Q9HC29 whole entry, the tested form may be a part): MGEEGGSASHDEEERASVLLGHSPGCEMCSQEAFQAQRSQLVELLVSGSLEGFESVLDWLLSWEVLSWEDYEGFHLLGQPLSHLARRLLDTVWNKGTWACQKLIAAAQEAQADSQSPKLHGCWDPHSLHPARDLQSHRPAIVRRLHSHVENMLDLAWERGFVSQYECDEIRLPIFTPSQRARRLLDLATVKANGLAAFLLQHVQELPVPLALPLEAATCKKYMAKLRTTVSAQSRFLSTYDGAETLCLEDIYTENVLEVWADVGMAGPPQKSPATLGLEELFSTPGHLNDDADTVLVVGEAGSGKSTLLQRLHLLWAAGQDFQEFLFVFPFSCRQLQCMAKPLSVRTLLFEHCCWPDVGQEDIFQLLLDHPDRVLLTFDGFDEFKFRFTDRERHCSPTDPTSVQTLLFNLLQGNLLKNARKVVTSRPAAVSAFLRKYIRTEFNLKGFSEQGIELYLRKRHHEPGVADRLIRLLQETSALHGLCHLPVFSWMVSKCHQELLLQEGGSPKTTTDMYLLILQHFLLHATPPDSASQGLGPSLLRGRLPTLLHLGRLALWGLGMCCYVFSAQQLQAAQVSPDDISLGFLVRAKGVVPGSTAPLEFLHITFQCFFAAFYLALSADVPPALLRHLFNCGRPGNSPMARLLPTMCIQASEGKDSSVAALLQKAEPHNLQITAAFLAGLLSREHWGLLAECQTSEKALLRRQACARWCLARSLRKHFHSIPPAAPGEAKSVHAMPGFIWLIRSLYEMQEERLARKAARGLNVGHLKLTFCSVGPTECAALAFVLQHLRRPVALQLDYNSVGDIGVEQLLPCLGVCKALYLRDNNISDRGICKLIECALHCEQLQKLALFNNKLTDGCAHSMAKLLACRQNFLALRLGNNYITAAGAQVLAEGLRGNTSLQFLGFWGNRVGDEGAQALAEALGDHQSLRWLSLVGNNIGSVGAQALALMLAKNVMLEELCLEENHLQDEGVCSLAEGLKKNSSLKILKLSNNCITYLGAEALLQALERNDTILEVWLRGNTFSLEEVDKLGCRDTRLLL

HEK293 [13] = experiment: NOD2 signaling inhibitors in MDP-stimulated cells, cell-based, uHTS, luminescence (AID 2001); format: functional; conditions: Homo sapiens
[14] = system: Streptococcus sp. 'group A'; experiment: Streptococcus pyogenes SK(-)GAS viability under kanamycin – luminescence, BacTiterGlo, confirmation, counter-screen for streptokinase expression inhibitor project, dose response (AID 1900); format: functional, organism-based
BJ [15] = experiment: BJ-TERT-LT-ST fibroblast viability loss – cell-based, RAS-independent, luminescence, dose response (AID 1935); format: functional; conditions: Homo sapiens;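 note: BJ fibroblasts immortalized with TERT plus LT and ST oncogenes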
cells [16] = format: functional, cell-based; remark: listed apart in the source
[17] = Luminescence-based dose response cell-based high throughput screening assay for cytotoxic compounds using the IEC-6 intestinal epithelial cell line. [Related pubchem assays: 1858 (Summary AID.), 1825 (Counterscreen.), 1907 (Confirmation screen.)]; format: functional
BJ [18] = experiment: cells; format: functional, cell-based; conditions: Homo sapiens
HEK293 [19] = experiment: EBV LMP1 TES2 canonical NF-kB signalling blockers – cell-based, HEK293, luciferase, cherry-pick, dose response (AID 588343); format: functional; conditions: Homo sapiens
BJ [20] = experiment: BJ-TERT fibroblast viability loss – cell-based, RAS-independent, luminescence, dose response (AID 1933); format: functional; conditions: Homo sapiens
Streptococcus = experiment: GAS UMAA2166 growth inhibition – luminescence, BacTiterGlo, counter-screen for streptokinase expression inhibitor project, dose response (AID 1915); format: functional, organism-based;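 note: potency for reduction of bacterial viability or growth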
[21] = reduction of Shn3 3'UTR-driven luciferase in osteoblasts – cell-based, Clone20 osteoblasts, firefly luciferase, cherry-picked, dose response (AID 624132); format: functional;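 note: firefly luciferase luminescence from reporter carrying the Shn3 3'UTR in osteoblasts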
[22] = Trypanosoma cruzi growth suppression in host cells – NIH3T3 host cells, beta-gal luminescence, confirmation (AID 2044); format: functional, cell-based;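 note: intracellular parasites grown in NIH/3T3 mouse fibroblasts as host cells; luminescent beta-galactosidase reporter signal from transgenic T. cruzi replicating inside host cells; inhibitors lower the luminescence signal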
HEK293 [23] = experiment: cells; conditions: Homo sapiens
Galanin receptor type 2 = Galanin receptor type 2 (Homo sapiens, UniProt O43603); experiment: Dose Response cell-based high-throughput screening assay to identify antagonists of galanin receptor 2 (GALR2). [Related pubchem assays: 828, 866 ]; format: functional
Galanin receptor type 2, sequence (O43603 whole entry): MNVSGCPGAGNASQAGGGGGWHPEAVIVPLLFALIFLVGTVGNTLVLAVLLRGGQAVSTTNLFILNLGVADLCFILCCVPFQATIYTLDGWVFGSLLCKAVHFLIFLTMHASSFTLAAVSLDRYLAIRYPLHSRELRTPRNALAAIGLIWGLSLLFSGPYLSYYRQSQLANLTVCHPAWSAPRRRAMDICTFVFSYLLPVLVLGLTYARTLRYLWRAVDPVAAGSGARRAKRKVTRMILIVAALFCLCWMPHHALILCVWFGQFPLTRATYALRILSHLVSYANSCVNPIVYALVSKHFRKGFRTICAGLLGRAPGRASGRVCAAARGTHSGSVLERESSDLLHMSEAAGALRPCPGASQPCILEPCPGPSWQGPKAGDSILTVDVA

HEK293 [24] = experiment: cells; conditions: Homo sapiens; remark: listed apart in the source

**Q.** For `CN(C)CCCNC(=O)c1cc2sc3ccccc3c2s1`, which CC50 (Vero [1]) is on record?
**A.** 14.6 µM (active)

**Q.** And the IC50 (Vero [2])?
**A.** 21.4 µM (active)

**Q.** What does the source list for `CC(=O)NC(c1ccc(Cl)cc1Cl)c1ccc2cccnc2c1O` (stereo unspecified)?
**A.** IC50 (HEK293 [3]): > 20 µM (inactive); IC50 (HEK293 [4]): 12 µM (active); EC50 [5]: 0.95 µM (active); AC50 [6]: 0.778 µM (active); EC50 (cells [7]): 4.6 µM (active); IC50 (HEK293 [8]): > 20 µM (inactive); AC50 [9]: 0.764 µM (active); EC50 [10]: 0.192 µM (active); EC50 (HEK293 [11]): > 20 µM (inactive); EC50 [12]: > 20 µM (inactive); IC50 (HEK293 [13]): > 20 µM (inactive); EC50 [14]: 4.98 µM (active); EC50 (BJ [15]): 2.82 µM (inconclusive); EC50 (cells [16]): > 350 µM (not active); IC50 [17]: 0.386 µM (active); EC50 (BJ [18]): 6.93 µM (active); AC50 (HEK293 [19]): 4.24 µM (active); EC50 (BJ [20]): 0.837 µM (active); EC50 (Streptococcus): 6.93 µM (active); AC50 [21]: 0.465 µM (active); EC50 [22]: 0.163 µM (active)

**Q.** With `CN(C(S)=NC1CCCCC1)C1(c2ccccc2Cl)CCCCC1=O` (stereo unspecified) as the molecule, how does the EC50 (HEK293 [23]) read?
**A.** > 59.6 µM (inactive)

**Q.** What about the IC50 (Galanin receptor type 2) of the same molecule?
**A.** > 42 µM (not active)

**Q.** And the EC50 (HEK293 [24])?
**A.** > 59.6 µM (inactive)
